# Experimental data as given in US20050033056A1, “Hydroxylated indole derivatives and uses thereof” (priority 2001, published 2005).
# What was measured:
# 5-HT2 receptor = conditions: background statement, see WO 98/43956 and EP 0 976 732 A1; cited from earlier work
# [1] = tested on: primary culture of human hepatocytes; assay: Morphology of primary human hepatocytes during treatment; type: cell-based; conditions: cells exposed to Compound 1 compared with control cells
# Protocol: Upon receiving a primary culture of human hepatocytes in 6-well plates, the culture medium containing streptomycin/penicillin was refreshed (2 ml/well). […] Compound 1 stock solution was added to the culture medium at a 1:400 ratio (v/v). The culture medium and testing compounds were replenished every 24 hours.
# CYP3A4/5 = assay: CYP induction in primary human hepatocytes, Western immunoblotting: CYP3A4/5; type: cell-based; conditions: 10 or 50 μM for 72 hours; hepatocytes from three donors
# Protocol: Upon receiving a primary culture of human hepatocytes in 6-well plates, the culture medium containing streptomycin/penicillin was refreshed (2 ml/well). […] The culture medium and testing compounds were replenished every 24 hours.
# At the end of the treatment, the cells were harvested into 1 mL of phosphate-buffered saline (PBS) after washing twice. The cells were precipitated by centrifugation, and were resuspended in PBS (approximately 50 μL).
# The membrane was blocked by 5% non-fat dried milk (NFDM) blotting buffer (PBS containing 0.05% Tween 20) at 4° C. overnight. […] The membrane was rinsed six times (10 minutes each time) with the blotting buffer, and exposed to 1:10,000 diluted secondary antibodies labeled with horseradish peroxidase for 1 hour at room temperature. After being extensively rinsed with the blotting buffer, the membrane was exposed to the substrate of peroxidase (enhanced chemiluminescence reagent). CYP proteins were detected by […] using an X-ray developer.
# [2] = tested on: pooled human liver microsomal preparations (HLM); assay: Compound 1 metabolism / metabolite formation in reconstituted system with pooled HLM; type: in vitro ADME; conditions: estimated by UV absorbance at 270 nm, metabolite formed or Compound 1 left after 1 hour with NADPH
# Protocol: (§1) The metabolism of Compound 1 was determined by the disappearance of Compound 1 or the appearance of Compound 1 metabolites in reaction mixtures as compared to respective controls. Compound 1 was incubated in the reconstituted in vitro reaction systems containing pooled human liver S9 fractions, microsomal preparations, or recombinant hepatic CYP forms, including CYP1A2, CYP2C9, CYP2C19, CYP2D6, CYP2E1, and CYP3A4. The reaction mixture (total volume of 250 μL) contained 0.5 mg of liver microsomal protein, 50 or 25 pmol of recombinant CYP, and Compound 1 (50-80 μM) in 50 mM Tris buffer containing 15 mM MgCl2 (pH 7.4). After incubating at 37° C. with gentle shaking for 1 minute, the reaction was initiated by adding 25 μL of NADPH solution (20 mg/mL), and was carried out for 1 hour. The reaction was terminated by quickly cooling the test tube on ice, followed by the addition of an equal volume of 100% methanol. The samples were centrifuged in a desktop centrifuge at 14,000 rpm for 5 minutes, and the supernatants were filtered through syringe filters (13 mm, 0.45 μm). The filtrates were subjected to analysis using LC/MS (ion trap) or LC/MS/MS.
# 1. […] The detector was monitored at 270 nm, which is the UVmax of Compound 1 predetermined by scanning between 225-400 nm using a photodiode array detector (PDA). […]
# CYP2D6 = CYP2D6 (Homo sapiens, UniProt P10635); assay: Compound 1 metabolism / metabolite formation by recombinant CYP2D6; type: in vitro ADME; parameters: purchased Gentest Corp. (Woburn, Mass.); host or cells: insect cells (microsomal preparation)
# Protocol: as §1
# 1. LC/MS (LCQ ion trap mass spectrometer, Finnigan Corp., San Jose, Calif.): Hewlett Packard 1100 HPLC system (Waldbronn, Germany) consisted of a binary pump, an autosampler, a column compartment unit, and an online variable wavelength UV detector (VWD). The detector was monitored at 270 nm, which is the UVmax of Compound 1 predetermined by scanning between 225-400 nm using a photodiode array detector (PDA). The metabolites were separated on a Hewlett Packard Eclipse C18 column (150×2.1 mm). The mobile phases were 10 nmM ammonium acetate at pH 4.8 (A) and acetonitrile (B). The gradient (B) was 10% (0-6 minutes), 22% (12-22 minutes), 90% (25-30 minutes), and 10% (31 minutes and after). The flow rate was 0.25 mL/minute. Software Navigator (Version 1.2, Finnigan Corp.) was used to control the HPLC and MS and to acquire the data. […]
# Chain of CYP2D6 (P10635 whole entry): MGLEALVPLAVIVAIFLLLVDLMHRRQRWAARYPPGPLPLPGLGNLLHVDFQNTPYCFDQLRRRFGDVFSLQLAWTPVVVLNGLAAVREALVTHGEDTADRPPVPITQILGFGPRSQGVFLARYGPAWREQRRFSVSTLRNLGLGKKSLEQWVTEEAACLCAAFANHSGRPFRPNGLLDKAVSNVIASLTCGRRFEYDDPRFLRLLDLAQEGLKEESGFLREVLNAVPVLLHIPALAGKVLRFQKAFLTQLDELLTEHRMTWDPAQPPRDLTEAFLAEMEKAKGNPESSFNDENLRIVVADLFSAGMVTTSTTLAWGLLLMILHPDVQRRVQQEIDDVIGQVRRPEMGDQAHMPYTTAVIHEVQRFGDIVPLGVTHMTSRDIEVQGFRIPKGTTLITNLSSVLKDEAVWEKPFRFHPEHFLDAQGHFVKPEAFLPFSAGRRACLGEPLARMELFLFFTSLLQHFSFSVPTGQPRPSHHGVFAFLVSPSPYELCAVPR
smiles,measurement,setting,value
"CNC(=O)Cc1ccc2ccn(C3CCN(CCc4ccccc4F)CC3)c2c1 [Compound 1, N-methyl-[1-[1-(2-fluorophenethyl)piperidine-4-yl]-1H-indol-6-yl] acetamide]","IC50, binding to 5-HT2 receptor",5-HT2 receptor,low nanomolar
same,morphologic changes of hepatocytes,[1],marked morphologic changes were not observed
same,expression of CYP3A4/5 (Western immunoblotting),CYP3A4/5,did not increase
same,Rel. Amount (%),[2],36%
same,metabolism of Compound 1 by CYP2D6 (in words),CYP2D6; approximately 50 μM of Compound 1,metabolized
same,Rel. Amount (%),"CYP2D6; recombinant CYP2D6, estimated by UV absorbance at 270 nm, metabolite formed or Compound 1 left after 1 hour with NADPH",78%
